tested on: Staphylococcus carnosus ATCC51365; assay: Yeast screening assay: radial diffusion assay of yeast supernatants; assay type: cell-based; set-up: key: An activity of 3 is better than Plectasin; An activity of 2 corresponds to the activity of Plectasin; 1 is worse than Plectasin; settings: yeast supernatant, clearing zone in radial diffusion assay
Summary of the method: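 Supernatants from S. cerevisiae expressing plectasin variants, grown 3 days at 30 °C in galactose medium, were applied to agarose containing 5×10^5 cfu/mL S. carnosus. Plates were incubated 3 h at 37 °C, overlaid, left overnight and MTT-stained. Clearing zones were scored as 2 = plectasin-like, 3 = better, 1 = worse.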

| Substance | Activity (antimicrobial activity relative to the activity of plectasin) |
| --- | --- |
| GFGCSGPWDEDDMQCHNHCKSIKGYKGGYCAKGGFVCKCY [Mutation N5S] | 3 |
| GFGCGGPWDEDDMQCHNHCKSIKGYKGGYCAKGGFVCKCY [Mutation N5G] | 3 |
| GFGCNGPWDEDDTQCHNHCKSIKGYKGGYCAKGGFVCKCY [Mutation M13T] | 2 |
| GFGCNGPWDEDDRQCHNHCKSIKGYKGGYCAKGGFVCKCY [Mutation M13R] | 3 |
| GFGCNGPWDEDDMQCHNHCKSIKGYKGGYCAKGGLVCKCY [Mutation F35L] | 3 |
| GFGCNGPRDEDDMQCHNHCKSIKGYKGGYCAKGGFVCKCY [Mutation W8R] | 3 |
| GFGCNGPWDEDDMQCHNHCKSIKGYKGGRCAKGGFVCKCY [Mutation Y29R] | 3 |
| GFGCNGPWDEDDMQCHNHCKSIKGYKGGYCAKGGFQCKCY [Mutation V36Q] | 2 |
| GFGCNGPWDEDDMQCHNHCKSIKGYKGGYCAKGRFVCKCY [Mutation G34R] | 3 |
| GFGCNGPWDADDMQCHNHCKSIKGYKGGYCAKGGFVCKCY [Mutation E10A] | 2 |
| GFGCNGPWNEDDMQCHNHCKSIKGYKGGYCAKGGFVCKCY [Mutation D9N] | 3 |
| GFGCNGPWDEDDAQCHNHCKSIKGYKGGYCAKGGFVCKCY [Mutation M13A] | 2 |
| GFGCNGPWDELDIQCHNHCKSIKGYKGGYCAKGGFVCKCY [D11L + M13I] | 2 |
| GFGCNGPWDEDDMQCHNHCKSIKGYKGGACAKGGFVCKCY [Mutation Y29A] | 2 |
| GFGCNGPWDEYDMQCHNHCKSIKGYKGGYCAKGGFVCKCY [Mutation D11Y] | 3 |
| GFGCNGPWDECDMQCHNHCKSIKGYKGGYCAKGGFVCKCY [Mutation D11C] | 2 |
| GFGCNGPWLEDDMQCHNHCKSIKGYKGGYCAKGGFVCKCY [Mutation D9L] | 3 |
| GFGCNGPWDEDDMQCHNHCKSIKGYKGGSCAKGGFVCKCY [Mutation Y29S] | 2 |
| GFGCNGPWDEDDMQCHNACKSIKGYKGGYCAKGGFVCKCY [Mutation H18A] | 2 |
| GFGCNGPWDEDDMQCHNHCKSIKYYKGGYCAKGGFVCKCY [Mutation G24Y] | 2 |
| GFGCNGPWQEDDMQCHNHCKSIKGYKGGYCAKGGFVCKCY [Mutation D9Q] | 3 |
| GFGCNGPWDEDDMQCHNHCKSIKGYKGGYCAKGGVVCKCY [Mutation F35V] | 2 |
| GFGCNGPWDEDDMQCHNHCKSIKGYKGGYCAKGGHVCKCY [Mutation F35H] | 2 |
| GFGCNGPWDEDDMQCHNLCKSIKGYKGGYCAKGGFVCKCY [Mutation H18L] | 3 |
| GFGCNGPWDEDDMICHNHCKSIKGYKGGYCAKGGFVCKCY [Mutation Q14I] | 2 |

tested on: panel of 6 different strains of Staphylococcus aureus; assay: Average MIC, NCCLS/CLSI guidelines using caMHB (Example 6); assay type: cell-based; settings: average over 6 S. aureus strains, duplicate; MIC above 32 counted as 64; read after 18-24 hours at 37° C.
Method: A large number of antimicrobial peptides of the invention were tested against a panel of 6 different strains of Staphylococcus aureus listed below:
Staphylococcus aureus, ATCC29213, MSSA, NCCLS reference strain; Staphylococcus aureus, ATCC25923, MSSA, NCCLS reference strain; Staphylococcus aureus, ATCC29737, MSSA; Staphylococcus aureus, E33235, MSSA; Staphylococcus aureus, 698-01, MRSA ST5, Str, Kan, Oxa; Staphylococcus aureus, 566-03, MRSA ST80, Oxa, Tet, Fus, Kan.
The staphylococci were exposed to the following peptide concentrations: 32; 16; 8; 4; 2; 1; 0.5; 0.25; 0.13; […]; and 0.03 microgram/mL. All peptides were purified, HPLC quantified and the concentrated peptides (>160 micrograms/mL) were diluted to 160 micrograms/mL in peptide dilution buffer (0.1% BSA, 0.01% Acetic Acid).
The MIC determination was done essentially as described by NCCLS/CLSI guidelines using caMHB. The MICs were read after 18-24 hours of 37° C. incubations and recorded along with the CFU in the table below.
A total number of 95 antimicrobial peptides of the invention were evaluated in duplicate against the 6 bacterial strains described above.
In the majority of the double determinations (93%), the MIC varied <2 fold. An average MIC is tabulated below. If the MIC was above 32 micrograms/mL, a value of 64 was used to calculate the average.

| Substance | Average MIC |
| --- | --- |
| GFGCSGPWDEDDMQCHNHCKSIKGYKGGYCAKGGFVCKCY [Mutation N5S] | 24 micrograms/mL |
| GFGCGGPWDEDDMQCHNHCKSIKGYKGGYCAKGGFVCKCY [Mutation N5G] | 24 micrograms/mL |
| GFGCNGPWDEDDTQCHNHCKSIKGYKGGYCAKGGFVCKCY [Mutation M13T] | 26 micrograms/mL |
| N5S + M13V + N17A: antimicrobial peptide of the invention, Plectasin variant (GFGCSGPWDEDDVQCHAHCKSIKGYKGGYCAKGGFVCKCY) | 18 micrograms/mL |
| M13R + Q14K + K26R: antimicrobial peptide of the invention, Plectasin variant (GFGCNGPWDEDDRKCHNHCKSIKGYRGGYCAKGGFVCKCY) | 5 micrograms/mL |
| GFGCNGPWDEDDRQCHNHCKSIKGYKGGYCAKGGFVCKCY [Mutation M13R] | 9 micrograms/mL |
| N17T: antimicrobial peptide of the invention, Plectasin variant (GFGCNGPWDEDDMQCHTHCKSIKGYKGGYCAKGGFVCKCY) [Mutation N17T] | 21 micrograms/mL |
| N17A: antimicrobial peptide of the invention, Plectasin variant (GFGCNGPWDEDDMQCHAHCKSIKGYKGGYCAKGGFVCKCY) [Mutation N17A] | 15 micrograms/mL |
| N5G + M13W: antimicrobial peptide of the invention, Plectasin variant (GFGCGGPWDEDDWQCHNHCKSIKGYKGGYCAKGGFVCKCY) | 9 micrograms/mL |
| N5G + D9A + Q14S + K23T + A31T: antimicrobial peptide of the invention, Plectasin variant (GFGCGGPWAEDDMSCHNHCKSITGYKGGYCTKGGFVCKCY) | 14 micrograms/mL |
| N5K + M13L: antimicrobial peptide of the invention, Plectasin variant (GFGCKGPWDEDDLQCHNHCKSIKGYKGGYCAKGGFVCKCY) | 9 micrograms/mL |
| N17K + K32R: antimicrobial peptide of the invention, Plectasin variant (GFGCNGPWDEDDMQCHKHCKSIKGYKGGYCARGGFVCKCY) | 7 micrograms/mL |
| D11G + N17I: antimicrobial peptide of the invention, Plectasin variant (GFGCNGPWDEGDMQCHIHCKSIKGYKGGYCAKGGFVCKCY) | 16 micrograms/mL |
| M13S + Q14K + K26R: antimicrobial peptide of the invention, Plectasin variant (GFGCNGPWDEDDSKCHNHCKSIKGYRGGYCAKGGFVCKCY; Synthetic antimicrobial polypeptide) | 15 micrograms/mL |
| N17K: antimicrobial peptide of the invention, Plectasin variant (GFGCNGPWDEDDMQCHKHCKSIKGYKGGYCAKGGFVCKCY) [Mutation N17K] | 11 micrograms/mL |
| N5D + D9S + Q14R: antimicrobial peptide of the invention, Plectasin variant (GFGCDGPWSEDDMRCHNHCKSIKGYKGGYCAKGGFVCKCY) | 16 micrograms/mL |
| M13A + Q14K + K26R: antimicrobial peptide of the invention, Plectasin variant (GFGCNGPWDEDDAKCHNHCKSIKGYRGGYCAKGGFVCKCY) | 9 micrograms/mL |
| S21N: antimicrobial peptide of the invention, Plectasin variant (GFGCNGPWDEDDMQCHNHCKNIKGYKGGYCAKGGFVCKCY) [Mutation S21N] | 11 micrograms/mL |
| N5S + M13V + N17T: antimicrobial peptide of the invention, Plectasin variant (GFGCSGPWDEDDVQCHTHCKSIKGYKGGYCAKGGFVCKCY) | 16 micrograms/mL |
| N17R + Y25R: antimicrobial peptide of the invention, Plectasin variant (GFGCNGPWDEDDMQCHRHCKSIKGRKGGYCAKGGFVCKCY) | 18 micrograms/mL |
| N17S: antimicrobial peptide of the invention, Plectasin variant (GFGCNGPWDEDDMQCHSHCKSIKGYKGGYCAKGGFVCKCY) [Mutation N17S] | 14 micrograms/mL |
| N5G + M13W + N17S: antimicrobial peptide of the invention, Plectasin variant (GFGCGGPWDEDDWQCHSHCKSIKGYKGGYCAKGGFVCKCY) | 10 micrograms/mL |
| S21A: antimicrobial peptide of the invention, Plectasin variant (GFGCNGPWDEDDMQCHNHCKAIKGYKGGYCAKGGFVCKCY) [Mutation S21A] | 17 micrograms/mL |
| N17F: antimicrobial peptide of the invention, Plectasin variant (GFGCNGPWDEDDMQCHFHCKSIKGYKGGYCAKGGFVCKCY) [Mutation N17F] | 12 micrograms/mL |
| K26C + Y40YRCG: antimicrobial peptide of the invention, Plectasin variant (GFGCNGPWDEDDMQCHNHCKSIKGYCGGYCAKGGFVCKCYRCG) | 11 micrograms/mL |
| S21V: antimicrobial peptide of the invention, Plectasin variant (GFGCNGPWDEDDMQCHNHCKVIKGYKGGYCAKGGFVCKCY) [Mutation S21V] | 26 micrograms/mL |
| N5H + M13E + N17E: antimicrobial peptide of the invention, Plectasin variant (GFGCHGPWDEDDEQCHEHCKSIKGYKGGYCAKGGFVCKCY) | 12 micrograms/mL |

From patent publication US20100120690A1, “Polypeptides Having Antimicrobial Activity and Polynucleotides Encoding Same” (Novozymes Adenium Biotech A/S, priority 2005, published 2010)
